Measurements taken from the METLIN SMRT retention time set (Domingo-Almenara et al. 2019).

Assay: gradient 5% acetonitrile 3 min, to 50% in 2 min, to 85% in 15 min, held 3 min, 100 µL/min
Conditions: column: Zorbax Extend-C18 2.1 x 50 mm; eluents: water / acetonitrile, 0.1% formic acid
Summary of the method: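 Retention time was recorded from adduct peaks, which were picked computationally and each inspected manually. Pure standards ran in mixtures of ~100 molecules on HPLC coupled to a quadrupole time-of-flight mass spectrometer, in positive and negative ionization mode, through a Zorbax Extend-C18 column (2.1 × 50 mm, 1.8 μm) at 100 μL/min. Eluents were water and acetonitrile, each with 0.1% formic acid.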

Row | SMILES | RP-LC retention time [s]
1 | O=C(NCc1ccccc1)C1CCN(c2cnc(N3CCCC3)nc2)CC1 | 639
2 | COCC(=O)Nc1cnc(-c2ccccc2)nc1 | 729
3 | O=C(c1cccs1)N1CC(C(=O)N2CCC(O)CC2)C1 | 566
4 | COc1ccccc1-c1nc(-c2ccc(S(=O)(=O)N3CCC(C)CC3)cc2)no1 | 1290
5 | CCN(CCN(C)C)c1ccc(C(=O)O)cc1NS(=O)(=O)c1cc(F)ccc1C | 634
6 | CCN1C(=O)COc2cc(-c3noc(C(=O)N4CCN(C5CCCCC5)CC4)n3)ccc21 | 652
7 | O=c1c(S(=O)(=O)N2CCCC2)cccn1Cc1nc(-c2ccccc2Cl)no1 | 808
8 | c1ccc(N2CCN(Cc3cccn3-c3nnc(N4CCOCC4)s3)CC2)nc1 | 756
9 | O=C(NC1CCCCCC1)c1ccc(Cn2cncn2)cc1 | 714
10 | COc1ccc(CCNS(=O)(=O)c2cc3c4c(c2)CCC(=O)N4CCC3)cc1OC | 766
11 | COCc1cc(=O)n(CC(=O)Nc2cc(C(F)(F)F)ccc2Cl)c(N2CCOCC2)n1 | 1060
12 | CCOc1ccc(S(=O)(=O)N2CCCC(C(=O)NCc3ccccn3)C2)cc1 (centres undefined) | 623
13 | CCCNC(=O)C1CCCN(c2nc3ncn(CC(=O)Nc4ccccc4Cl)c(=O)c3s2)C1 (centres undefined) | 738
14 | CCN1C(=O)C2(CCN(S(=O)(=O)c3ccc(OC)c(Cl)c3)CC2)c2ccccc21 | 1080
15 | Cc1nnc(-c2cc(NC(=O)c3ccc(C(F)(F)F)cc3)c(C)s2)o1 | 986
16 | O=C(c1ccccc1Cl)N1CCN(c2cc(-c3ccccc3)[nH]n2)CC1 | 804
17 | Cc1nc(Cn2cccc2C(=O)NC2CCCCCC2)no1 | 879
18 | CCCN1C(=O)C2CCC(=O)N2c2ccc(C(=O)NC(C)C)cc21 (centres undefined) | 669
19 | COC[C@@H]1CN(Cc2cccc(OC)c2OC)C[C@H]1c1ccncc1 | 656
20 | COc1ccccc1NS(=O)(=O)c1ccc(-c2nnc(C3CCC3)o2)o1 | 904

Row | SMILES | RP-LC retention time [s]
21 | Cc1ccc(S(=O)(=O)N2CCn3c(nn(CC4CC4)c3=O)C2)c(C)c1 | 809
22 | COC(=O)c1ccccc1NC(=O)Cn1cnc2c(sc3nc(-c4ccccc4)ccc32)c1=O | 1110
23 | Cc1cc2c(cc1S(=O)(=O)N1CCCC1C(=O)NCC(C)c1ccccc1)OCC(=O)N2 (centres undefined) | 799
24 | O=C(C1CCOC1)N1CCC(CCOc2cccc(F)c2)CC1 (centres undefined) | 834
25 | O=C(Cn1ncc2c(c1=O)N(C1CC1)C(=O)CS2)NCCC1=CCCCC1 | 754
26 | O=C(Nc1ccc(F)cc1)C1CCN(S(=O)(=O)c2cc(C(=O)N3CCCCCC3)cs2)CC1 | 920
27 | CCCn1cc(C2=CCN(S(=O)(=O)c3ccc(OC)c(Cl)c3)CC2)c2cccnc21 | 921
28 | Cc1sc(-c2nnc(C3CC3)o2)cc1NC(=O)c1ccc(N(C)C)cc1 | 963
29 | CCN(CC)c1nc2ccsc2c(=O)n1CCC(=O)N1CCN(c2ccccn2)CC1 | 683
30 | CCn1cnnc1C1CCCCN1S(=O)(=O)c1cccc(F)c1 (centres undefined) | 716
31 | CCOc1ccc(NC(=O)N2CCC3(CC2)NC(=O)c2ccccc2N3C)cc1 | 781
32 | Cc1ccccc1CNC(=O)C1CCN(S(=O)(=O)c2cc(C(=O)N3CCCC3)n(C)c2)CC1 | 738
33 | COc1cccc(CNC(=O)C2CCN(c3cc(N4CCSCC4)ncn3)CC2)c1 | 656
34 | CC1(CNC(=O)c2ccc3c(c2)OCO3)CCOCC1 | 664
35 | Cc1cccc(NC(=O)N2CCCC(Cn3cnc4cccnc43)C2)c1C (centres undefined) | 672
36 | Cc1ncsc1CN1CCC(Oc2ccccc2-c2nc(C3CC3)no2)C1 (centres undefined) | 653
37 | Cc1cc(N2CCCC2)n2nc(CN3CCN(c4ccccn4)CC3)nc2n1 | 553
38 | COC(=O)c1cnn(-c2ccc(C(=O)N3CCCC3)cc2)c1N | 654
39 | O=C(NCCCN1CCOCC1)c1nc2ccccn2c1-c1ccc(F)cc1 | 602
40 | O=C(CC1CCN(C(=O)NCc2ccccc2)CC1)N1CCCCC1 | 703

Row | SMILES | RP-LC retention time [s]
41 | CCN(CC)c1ccc(NC(=O)CSc2cc(N3CCCC3)ncn2)c(C)c1 | 600
42 | O=C(Nc1ccc(OCc2nnc(-c3ccccc3)o2)cc1)c1cncc(Br)c1 | 883
43 | CCOC(=O)C1CCN(C(=O)C2CCN(c3nnc(-c4ccccc4)o3)CC2)CC1 | 801
44 | Cc1nnc(N2CCCC(C(=O)NCCCOC(C)C)C2)c2nn(-c3ccccc3)c(C)c12 (centres undefined) | 678
45 | CC(C)NC(=O)c1ccc(OCC2CCCN2C(=O)c2ccoc2)cc1 (centres undefined) | 747
46 | CCN1CCCC1CNC(=O)Cn1c(=O)c2cccn2c2ccc(F)cc21 (centres undefined) | 614
47 | CC(C)c1cccc(NC(=O)Cn2cnc3nc(N4CCC(C(=O)NC5CC5)CC4)sc3c2=O)c1 | 743
48 | c1ccc(Cc2nn3c(CSc4ccccc4)nnc3s2)cc1 | 927
49 | CCCC(=O)Nc1ccc2c(c1)N(C(=O)c1ccco1)CCC2 | 604
50 | O=C(O)c1ccc(NC(=O)N2C[C@@H]3C[C@@H](C2)c2cccc(=O)n2C3)cc1 | 592
51 | Cc1ccc(C)c(N2CCN(c3ccnc(SCC(=O)NC4CCCCC4)n3)CC2)c1 | 940
52 | Cc1ccccc1Oc1nccnc1N1CCCC(C(=O)NC2CCCCCC2)C1 (centres undefined) | 1120
53 | CC(C)N1CCN(Cc2nc(-c3ccc(N(C)Cc4ccccc4)nc3)no2)CC1 | 661
54 | CC(C)(C)c1ccc(C(=O)NC2CCN(c3cc(-c4ccccc4)[nH]n3)C2)cc1 (centres undefined) | 872
55 | O=C(c1cn2ccccc2n1)N1CCN(Cc2cccc(F)c2)CC1 | 555
56 | Cc1cccc2c(=O)n(C3CCN(S(=O)(=O)c4ccc(F)cc4)CC3)cnc12 | 949
57 | COCCCNC(=O)C1CC(=O)N(CCc2c[nH]c3ccc(C)cc23)C1 (centres undefined) | 667
58 | O=C(N[C@H]1C[C@@H]2C[C@H]1N(C(=O)Nc1ccc3c(c1)CCC3)C2)c1ccccc1 | 950
59 | O=C(Cn1cc(-c2ccccc2)c2ncnc(N3CCOCC3)c21)N1CCCCC1 | 700

Now from value to compound:

Row | RP-LC retention time [s] | SMILES
60 | 623 | Cc1ccc(C(=O)NCCc2nc3cccnc3n2C)c(C)c1
61 | 599 | O=C(NCCCN1CCOC(c2ccccc2)C1)c1ccc(Cl)cc1Cl (centres undefined)
62 | 606 | Cc1ccccc1-c1noc(C2CCCN2C(=O)Nc2ccccc2Cl)n1 (centres undefined)
63 | 606 | CC(=O)Nc1ccc(CCc2nc3ccc(C(=O)NCc4ccco4)cc3[nH]2)cc1
64 | 1190 | Cc1ccc(C)c(-c2coc(-c3ccc(NC(=O)NCc4cccc(F)c4)cc3)n2)c1
65 | 885 | Cc1cc(OCC(=O)NCc2cccs2)nc(-c2ccc(F)cc2)n1
66 | 859 | Cc1noc(C)c1C1CCCN1C(=O)c1cc(-c2ccccc2F)no1 (centres undefined)
67 | 769 | CCn1ccc2sc(C)c(C(=O)NCc3ccc4c(c3)OCO4)c2c1=O
68 | 687 | CCOc1ccc(CNC(=O)c2cn3ccccc3n2)cc1
69 | 788 | Cc1ccc(C)c(C(=O)Nc2cnn(-c3ncc(N(C)C)cn3)c2)c1
70 | 843 | CCN1C(=O)C(C)(C(=O)NCc2ccccc2OC)Oc2cccnc21 (centres undefined)
71 | 1030 | COc1ccccc1-c1nc(C2CCN(C(=O)c3cc4cc(Cl)ccc4[nH]3)CC2)no1
72 | 983 | Cc1ccc(CNC(=O)c2nc(Cn3c(=O)oc4ccc(Cl)cc43)no2)cc1
73 | 898 | Cc1noc(-c2ccc(-n3ncc(C(=O)NCCc4c[nH]c5ccccc45)c3C)nc2)n1
74 | 1150 | Cc1ccc(Sc2nccnc2N2CCCC(C(=O)Nc3cc(C)cc(C)c3)C2)cc1 (centres undefined)
75 | 777 | O=C(Nc1ccc(F)cc1)c1cn(CC(O)c2ccc3c(c2)OCO3)nn1 (centres undefined)
76 | 987 | CCOc1cccc(CNc2cc(-n3nc(C)cc3C)ncn2)c1
77 | 789 | Cc1ccc(N2CC(c3nc(Cn4cnc5ccccc5c4=O)no3)CC2=O)cc1C (centres undefined)
78 | 970 | Cc1ccc2ncn(C3CCN(S(=O)(=O)c4ccc(Cl)cc4)CC3)c(=O)c2c1
79 | 877 | COC(=O)c1ccc(NC(=O)Cn2cccc(-c3nc(-c4ccc(F)cc4)no3)c2=O)cc1
80 | 877 | O=C(Nc1ccc2c(c1)OCO2)C1(c2ccc(F)cc2)CC1
81 | 977 | COc1ccc(OC)c(-c2ccc(=O)n(CCc3nc(-c4ccc(F)cc4)no3)n2)c1
82 | 804 | Cc1ccc(-n2nc3c(N4CCCC(C(=O)NCc5ccccc5Cl)C4)nnc(C)c3c2C)cc1 (centres undefined)
83 | 881 | CN(C)c1cccc(C(=O)N2CCN(C(=O)c3nnn4c3COC(c3ccc(Cl)cc3)C4)CC2)c1 (centres undefined)
84 | 972 | CCc1ccc(NC(=O)Cc2c(C)nn(-c3nc(-c4ccc(Cl)cc4)cs3)c2C)cc1
85 | 819 | COc1ccc(C)cc1NC(=O)N1CCC2(CC1)NC(=O)c1cccc(Cl)c1N2
86 | 950 | CCC(C(=O)N1CCOc2ccc(C)cc21)n1cnc2nc3c(cc2c1=O)CCCC3 (centres undefined)
87 | 861 | Cc1cccc(NC(=O)Cn2c(C)nc3onc(C)c3c2=O)c1C
88 | 721 | O=C(NCc1ccc(Cl)cc1)c1nc(N2CCOCC2)c2ccccc2n1
89 | 859 | CC1=C(C(=O)OCCc2ccccc2)C(c2ccc(C)s2)NC(=O)N1 (centres undefined)
